Results as given in patent publication US20260356803A1, “Nicotinamide derivatives” (Board of Regents, The University of Texas System, priority 2024, published 2026).

How the values were obtained:
HCT116 cells = assay: Cas9-expressing HCT116 cell viability; type: cell-based
Text: To gain insight into the mechanism of 9 and the relevance of Nam, we pursued two independent and complementary unbiased genetic approaches. First, we performed a genome-wide pooled Clustered Regularly Interspaced Short Palindromic Repeats (CRISPR) and CRISPR-associated protein 9 (Cas9) knockout screen to identify genes whose loss of function can enhance or suppress compound 9 activity. […] We cultured Cas9-expressing HCT116 cells in 10% FBS Nam-free DMEM and transduced with a lentiviral single guide RNA (sgRNA) library designed to silence 19,114 human genes.^11 These cells were treated with either vehicle (DMSO) or 9 for 30 days by which time the 9-treated cells had 7.6 fewer population doublings. Then, relative sgRNA sequences in the resulting cells were determined by massively parallel sequencing of PCR products amplified from genomic DNA, and the relative impact of each gene was derived from the sgRNA reads.
These observations, taken together, support the hypothesis that the activity of compound 9 depends on NAMPT and NMNAT1.
In 96-well assay plates (Corning #2903), 2,000 cells were plated per well in 100 μL of medium and allowed to adhere overnight. The next day, compounds or Nam suspended in DMSO were dispensed to the assayed wells using a D300e Digital Dispenser (Tecan). All wells were normalized to 0.5% DMSO. 72 hours after incubation at 37 °C in 5% CO2, cell viability was assayed using an ATP-based luminescent viability assay, CellTiter-Glo (Promega #G8462). CellTiter-Glo substrate was mixed 1:1 with phosphate-buffered saline (PBS) supplemented with 1% Triton X-100, and 40 μL of this mixture was added to the assay wells. After the plates were shaken on a microplate shaker for 10 minutes at room temperature, luminescence was recorded using a Synergy 2 Microplate Reader or Cytation 5 plate reader (BioTek). In Prism 9 software (GraphPad), ten-point dose response curves were plotted with baseline-correction to the vehicle control well, and IC50 values were calculated by curve fitting using asymmetric (five parameter), least squares fit.

SARM1 = assay: Cytotoxicity in SARM1-knockout versus wild type cells; type: cell-based; conditions: SARM1-knockout vs wild type
Text: (§1) Given that vacor, 3-AP, and compound 21 are all metabolized to toxic, NAD-like derivatives through NAMPT and NMNAT, we hypothesized that their anti-cancer activity may also depend on SARM1. To test this, we compared the toxic effects of vacor, 3-AP, and 9 in either wild type cells or cells in which we used CRISPR to silence SARM1. […] These observations highlight that even though these different scaffolds are toxified through the same mechanism, the resulting metabolites may have different activities. We next co-titrated guanosine, which is known to rescue tiazofurin by bypassing IMPDH in guanylate synthesis, with each of the above small molecules. […] To test this hypothesis, we set up in vitro reactions with different combinations of 9, NAMPT and NMNAT. After incubation, metabolites were extracted, reconstituted in aqueous solution and then co-incubated with an established IMPDH2 enzyme assay.

[1] = target: T1, recombinant human inosine monophosphate dehydrogenase 2 (IMPDH2) (Homo sapiens, UniProt P12268); assay: IMPDH2 enzyme assay with reaction extracts; type: biochemical; conditions: role: inhibitor; extract of overnight reaction of 9 with NAMPT and NMNAT added at 40% v/v; 500 uM NAD, 250 uM IMP
T1 construct: NADH absorbance assay with extracts of NAMPT/NMNAT reactions
Text: as §1
IMPDH activity was measured by monitoring NADH production through the change in absorbance at […] as previously described [PMID: 13428767]. […] Absorbance was measured every 30 seconds for 30 minutes on a BioTek Cytation 5 plate reader (Agilent, USA) at 37 °C. IMPDH2 activity was determined from the slope of absorbance vs. time plots. […]

Structure (SMILES): O=C(Nc1cccs1)c1cccnc1 [Compound 9, N-(Thiophen-2-yl)nicotinamide]
- rescue by 100 μM Nam (HCT116 cells; 10% FBS Nam-free DMEM): rescued by 100 μM Nam
- IC50 (HCT116 cells; Cas9-expressing HCT116, 10% FBS Nam-free DMEM): 20.8 nM
- average increase in IC50 on NMNAT1 knockout (HCT116 cells; HCT116, three independent NMNAT1 sgRNAs): 6.0 fold
- sensitivity of SARM1-knockout cells (SARM1): equally sensitive
- inhibition of IMPDH activity [1]: substantial inhibition
